Reference: publication PMC9732821, “Neurotrophic Activity and Its Modulation by Zinc Ion of a Dimeric Peptide Mimicking the Brain-Derived Neurotrophic Factor N-Terminal Region” (ACS Chemical Neuroscience, 2022)

System: human TrkB
Experiment: TrkB phosphorylation, immunoprecipitation and western blot in SH-SY5Y cells transfected with hTrkB-EGFP
Format: cell-based
Details: 10 μM peptide, 10 min stimulation, normalized to ctrl; four replicas (peptides); one-way ANOVA with Bonferroni
Text: The possibility of mimicking the function of the full-length BDNF protein by using a linear peptide fragment encompassing the first 12 amino acids of the mature NT N-terminal was already postulated.[31] Here, we named this sequence as m-bdnf (Figure 1A) and performed a systematic comparison between the performance of the full-length human BDNF produced recombinantly in Escherichia coli([32]) and (i) m-bdnf, (ii) a dimeric peptide displaying two copies of the m-bdnf sequence covalently bound by a disulfide bridge (d-bdnf), and (iii) a monomeric peptide displaying the scrambled sequence of m-bdnf (s-bdnf). We first investigated the ability of these peptides to activate the TrkB receptor. To this purpose, we expressed a recombinant GFP fusion of human TrkB (Figure 1A) in SH-SY5Y cells. Then, cells were stimulated with BDNF or the related peptides. […] Then, the same cell-based assays for ERK phosphorylation were used to better elucidate the agonist properties of d-bdnf (Figure 1D). […] Specifically, an EC50 concentration of BDNF (1 nM) or of d-bdnf (10 μM) was used in combination with the increasing concentration of d-bdnf and BDNF, respectively, and the increase of ERK phosphorylation was assessed. […] Of note, we also performed a non-permeabilizing immunofluorescence analysis to quantify the membrane-bound BDNF in differentiated SH-SY5Y cells in the absence or presence of BDNF and d-bdnf (Figure S1C,D). […] The same increment was not observed upon treatment with the d-bdnf peptide, while instead we measured a slight (∼18%) decrease of the signal possibly due to the ability of the peptide to displace endogenous BDNF at the tested dose (10 μM). […]
Figure 1 Activation of the TrkB receptor by BDNF and its mimetic peptide ligands. […] (C) Scatter dot plot of ERK (left) and AKT (right) phosphorylation levels detected in differentiated SH-SY5Y cells, after stimulation with the same treatments as in (B). […] (G) Bar graph of mean ± SD ‘B-1’ values retrieved from N&B analysis for all the different conditions measured. […]

| Substance | TrkB phosphorylation (p-Tyr/TrkB band density) |
| --- | --- |
| HSDPARRGELSV-NH2 [m-bdnf, linear peptide fragment encompassing the first 12 amino acids of the mature NT N-terminal] | only d-bdnf was able to promote a significant TrkB phosphorylation |
| HSDPARRGELSVC-C-VSLEGRRAPDSH (disulfide) [d-bdnf] | significant TrkB phosphorylation (p < 0.05) |
| SRAGPHLRDVSE-NH2 [s-bdnf] | only d-bdnf was able to promote a significant TrkB phosphorylation |
